US20060069132A1, “Azolecarboxamide herbicides” (priority 2004, published 2006)

Experiments:
barnyardgrass [1] = assay: Test A pre-/postemergence herbicide test; assay type: in vivo, Echinochloa crus-galli
How it was run: (§1)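 Plants are held in greenhouse about ten days after treatment, then compared with untreated controls and scored 0 (no effect) to 100 (complete control). Preemergence dosing is a directed soil spray on sown sandy loam; postemergence dosing is spray to runoff at 2–10 cm height.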

large crabgrass [2] = assay: Test A pre-/postemergence herbicide test; assay type: in vivo, Digitaria sanguinalis
How it was run: as §1

giant foxtail [3] = assay: Test A pre-/postemergence herbicide test; assay type: in vivo, Setaria faberi
How it was run: as §1

morningglory [4] = assay: Test A pre-/postemergence herbicide test; assay type: in vivo, Ipomoea spp.
How it was run: as §1

redroot pigweed = assay: Test A pre-/postemergence herbicide test; assay type: in vivo, Amaranthus retroflexus
How it was run: as §1

velvetleaf [5] = assay: Test A pre-/postemergence herbicide test; assay type: in vivo, Abutilon theophrasti
How it was run: as §1

barnyardgrass [6] = assay: Test B pre-/postemergence herbicide test; assay type: in vivo, Echinochloa crus-galli; settings: for Plant response rating, Barnyardgrass: preemergence; for Barnyardgrass plant response rating: postemergence, visual rating, scale 0 (no effect) to 100 (complete control)
How it was run: (§2)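 Flooded paddy rice and barnyardgrass were treated at the 2-leaf stage; upland plantings received compound either on sown seed or on 1- to 4-leaf seedlings. All were kept 13–15 days in a greenhouse and scored visually, 0–100, relative to untreated plants.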

Surinam grass = assay: Test B pre-/postemergence herbicide test; assay type: in vivo, Urochloa decumbens; settings: for Plant response rating, Surinam Grass: preemergence; for Surinam Grass plant response rating: postemergence, visual rating, scale 0 (no effect) to 100 (complete control)
How it was run: (§3)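 Greenhouse pot assay with simultaneous preemergence (treated seed) and postemergence (2–18 cm seedlings) applications of surfactant-containing, non-phytotoxic solvent formulations. Response scored visually 13–15 days later on a 0–100 scale, 100 meaning complete control.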

cocklebur = assay: Test B pre-/postemergence herbicide test; assay type: in vivo, Xanthium strumarium; settings: for Plant response rating, Cocklebur: preemergence; for Cocklebur plant response rating: postemergence, visual rating, scale 0 (no effect) to 100 (complete control)
How it was run: as §2

corn = assay: Test B pre-/postemergence herbicide test; assay type: in vivo, Zea mays; settings: for Plant response rating, Corn: preemergence; for Corn plant response rating: postemergence, visual rating, scale 0 (no effect) to 100 (complete control)
How it was run: as §3

large crabgrass [7] = assay: Test B pre-/postemergence herbicide test; assay type: in vivo, Digitaria sanguinalis; settings: for Plant response rating, Crabgrass, Large: preemergence; for Crabgrass, Large plant response rating: postemergence, visual rating, scale 0 (no effect) to 100 (complete control)
How it was run: as §3

giant foxtail [8] = assay: Test B pre-/postemergence herbicide test; assay type: in vivo, Setaria faberi; settings: for Plant response rating, Foxtail, Giant: preemergence; for Foxtail, Giant plant response rating: postemergence, visual rating, scale 0 (no effect) to 100 (complete control)
How it was run: as §3

lambsquarters = assay: Test B pre-/postemergence herbicide test; assay type: in vivo, Chenopodium album; settings: for Plant response rating, Lambsquarters: preemergence; for Lambsquarters plant response rating: postemergence, visual rating, scale 0 (no effect) to 100 (complete control)
How it was run: as §3

morningglory [9] = assay: Test B pre-/postemergence herbicide test; assay type: in vivo, Ipomoea coccinea; settings: for Morningglory plant response rating: postemergence, visual rating, scale 0 (no effect) to 100 (complete control)
How it was run: as §2

pigweed = assay: Test B pre-/postemergence herbicide test; assay type: in vivo, Amaranthus retroflexus; settings: for Plant response rating, Pigweed: preemergence; for Pigweed plant response rating: postemergence, visual rating, scale 0 (no effect) to 100 (complete control)
How it was run: as §3

rice [10] = assay: Test B pre-/postemergence herbicide test; assay type: in vivo, Oryza sativa; settings: 500 g ai/ha; visual rating 0-100, 0 no effect, 100 complete control; preemergence
How it was run: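 Species tested were Echinochloa crus-galli, Ipomoea coccinea, Xanthium strumarium and Oryza sativa, treated both before emergence and at the 1- to 4-leaf stage; rice and barnyardgrass were also tested under flooding at 2 leaves. Greenhouse incubation lasted 13–15 days before visual 0–100 scoring.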

velvetleaf [11] = assay: Test B pre-/postemergence herbicide test; assay type: in vivo, Abutilon theophrasti; settings: for Plant response rating, Velvetleaf: preemergence; for Velvetleaf plant response rating: postemergence, visual rating, scale 0 (no effect) to 100 (complete control)
How it was run: as §3

blackgrass = assay: Test B postemergence herbicide test; assay type: in vivo, Alopecurus myosuroides; settings: postemergence, visual rating, scale 0 (no effect) to 100 (complete control)
How it was run: (§4)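 After treating 2-leaf paddy plants or 2–18 cm postemergence plants (1 to 4 leaves) with formulated chemical, researchers kept them in a greenhouse for 13–15 days. Effects were judged visually versus controls: 0 indicates none, 100 total control.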

wheat = assay: Test B postemergence herbicide test; assay type: in vivo, Triticum aestivum; set-up: key to Wheat plant response rating: 0 = no effect, 100 = complete control; settings: postemergence, visual rating, scale 0 (no effect) to 100 (complete control)
How it was run: (§5)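 Visual ratings, 0 (no effect) to 100 (complete control), made versus controls after 13–15 d greenhouse. Paddy plants treated at 2-leaf stage; postemergence plants at 1- to 4-leaf stage, 2–18 cm tall.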

wild oat = assay: Test B postemergence herbicide test; assay type: in vivo, Avena fatua; settings: postemergence, visual rating, scale 0 (no effect) to 100 (complete control)
How it was run: as §5

rice [12] = assay: Test B flooded paddy test; assay type: in vivo, Oryza sativa; settings: 1000 g ai/ha, visual rating, scale 0 to 100 (0 no effect, 100 complete control), 13 to 15 days
How it was run: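 Greenhouse test; postemergence application to plants at 1–4 leaves (2–18 cm); paddy species at 2 leaves; evaluated visually vs controls at 13–15 days; scale 0–100 (100 = complete control).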

[13] = tested on: small flower umbrella sedge; assay: Test B flooded paddy test; assay type: in vivo, Cyperus difformis; settings: 1000 g ai/ha, visual rating, scale 0 to 100 (0 no effect, 100 complete control), 13 to 15 days
How it was run: as §4

ducksalad = assay: Test B flooded paddy test; assay type: in vivo, Heteranthera limosa; settings: 1000 g ai/ha, visual rating, scale 0 to 100 (0 no effect, 100 complete control), 13 to 15 days
How it was run: as §4

barnyardgrass [14] = assay: Test B flooded paddy test; assay type: in vivo, Echinochloa crus-galli; settings: 1000 g ai/ha, visual rating, scale 0 to 100 (0 no effect, 100 complete control), 13 to 15 days
How it was run: as §4

[15] = Postemergence, 250 g ai/ha, 0 to 100 scale, 0 no effect, 100 complete control
[16] = Postemergence, 1000 g ai/ha, 0 to 100 scale, 0 no effect, 100 complete control
[17] = Preemergence, 1000 g ai/ha, visual rating, 0 to 100 scale (0 no effect, 100 complete control)
[18] = preemergence, 250 g ai/ha, visual injury, 0 to 100 scale (0 no effect, 100 complete control)
[19] = 500 g ai/ha, visual rating 0-100, 0 no effect, 100 complete control
[20] = 125 g ai/ha, 0 to 100 scale, 0 is no effect, 100 is complete control

SMILES: CCn1nc(C(C)(C)C)cc1C(=O)Nc1cccc([S+]([O-])C(F)(F)F)c1 (centres unmarked) [Compound 135]
- Barnyardgrass plant response rating (barnyardgrass [1]; [15]): 30
- Plant response rating, Barnyardgrass (barnyardgrass [1]; [16]): 50
- Barnyardgrass plant response rating (barnyardgrass [1]; [17]): 65
- Barnyardgrass plant response rating (barnyardgrass [1]; [18]): 35
- Crabgrass, Large plant response rating (large crabgrass [2]; [15]): 20
- Plant response rating, Crabgrass, Large (large crabgrass [2]; [16]): 30
- Crabgrass, Large plant response rating (large crabgrass [2]; [17]): 90
- Crabgrass, Large plant response rating (large crabgrass [2]; [18]): 40
- Foxtail, Giant plant response rating (giant foxtail [3]; [15]): 20
- Plant response rating, Foxtail, Giant (giant foxtail [3]; [16]): 30
- Foxtail, Giant plant response rating (giant foxtail [3]; [17]): 50
- Foxtail, Giant plant response rating (giant foxtail [3]; [18]): 10
- Morningglory plant response rating (morningglory [4]; [15]): 10
- Plant response rating, Morningglory (morningglory [4]; [16]): 10
- Morningglory plant response rating (morningglory [4]; [17]): 25
- Morningglory plant response rating (morningglory [4]; [18]): 0
- Pigweed plant response rating (redroot pigweed; [15]): 80
- Plant response rating, Pigweed (redroot pigweed; [16]): 85
- Pigweed plant response rating (redroot pigweed; [17]): 85
- Pigweed plant response rating (redroot pigweed; [18]): 55
- Velvetleaf plant response rating (velvetleaf [5]; [15]): 15
- Plant response rating, Velvetleaf (velvetleaf [5]; [16]): 25
- Velvetleaf plant response rating (velvetleaf [5]; [17]): 50
- Velvetleaf plant response rating (velvetleaf [5]; [18]): 5
- Plant response rating, Barnyardgrass (barnyardgrass [6]; [19]): 50
- Barnyardgrass plant response rating (barnyardgrass [6]; 125 g ai/ha): 20
- Barnyardgrass plant response rating (barnyardgrass [6]; 500 g ai/ha): 40
- Plant response rating, Barnyardgrass (barnyardgrass [6]; [20]): 40
- Plant response rating, Surinam Grass (Surinam grass; [19]): 30
- Surinam Grass plant response rating (Surinam grass; 125 g ai/ha): 30
- Surinam Grass plant response rating (Surinam grass; 500 g ai/ha): 40
- Plant response rating, Surinam Grass (Surinam grass; [20]): 10
- Plant response rating, Cocklebur (cocklebur; [19]): 0
- Cocklebur plant response rating (cocklebur; 125 g ai/ha): 40
- Cocklebur plant response rating (cocklebur; 500 g ai/ha): 90
- Plant response rating, Cocklebur (cocklebur; [20]): 0
- Plant response rating, Corn (corn; [19]): 0
- Corn plant response rating (corn; 125 g ai/ha): 20
- Corn plant response rating (corn; 500 g ai/ha): 30
- Plant response rating, Corn (corn; [20]): 0
- Plant response rating, Crabgrass, Large (large crabgrass [7]; [19]): 90
- Crabgrass, Large plant response rating (large crabgrass [7]; 125 g ai/ha): 20
- Crabgrass, Large plant response rating (large crabgrass [7]; 500 g ai/ha): 30
- Plant response rating, Crabgrass, Large (large crabgrass [7]; [20]): 50
- Plant response rating, Foxtail, Giant (giant foxtail [8]; [19]): 20
- Foxtail, Giant plant response rating (giant foxtail [8]; 125 g ai/ha): 30
- Foxtail, Giant plant response rating (giant foxtail [8]; 500 g ai/ha): 40
- Plant response rating, Foxtail, Giant (giant foxtail [8]; [20]): 10
- Plant response rating, Lambsquarters (lambsquarters; [19]): 100
- Lambsquarters plant response rating (lambsquarters; 125 g ai/ha): 70
- Lambsquarters plant response rating (lambsquarters; 500 g ai/ha): 80
- Plant response rating, Lambsquarters (lambsquarters; [20]): 30
- Morningglory plant response rating (morningglory [9]; 125 g ai/ha): 30
- Morningglory plant response rating (morningglory [9]; 500 g ai/ha): 50
- Plant response rating, Morningglory (morningglory [9]; preemergence, 125 g ai/ha, 0 to 100 scale, 0 is no effect, 100 is complete control): 10
- Plant response rating, Pigweed (pigweed; [19]): 100
- Pigweed plant response rating (pigweed; 125 g ai/ha): 80
- Pigweed plant response rating (pigweed; 500 g ai/ha): 90
- Plant response rating, Pigweed (pigweed; [20]): 60
- Plant response rating, Rice (rice [10]): 30
- Plant response rating, Velvetleaf (velvetleaf [11]; [19]): 50
- Velvetleaf plant response rating (velvetleaf [11]; 125 g ai/ha): 20
- Velvetleaf plant response rating (velvetleaf [11]; 500 g ai/ha): 30
- Plant response rating, Velvetleaf (velvetleaf [11]; [20]): 30
- Blackgrass plant response rating (blackgrass; 125 g ai/ha): 0
- Blackgrass plant response rating (blackgrass; 500 g ai/ha): 0
- Wheat plant response rating (wheat; 125 g ai/ha): 20
- Wheat plant response rating (wheat; 500 g ai/ha): 20
- Oat, Wild plant response rating (wild oat; 125 g ai/ha): 20
- Oat, Wild plant response rating (wild oat; 500 g ai/ha): 20
- Rice plant response rating (rice [12]): 60
- Sedge, Umbrella plant response rating [13]: 70
- Ducksalad plant response rating (ducksalad): 80
- Barnyardgrass plant response rating (barnyardgrass [14]): 60
